Source: patent publication US20150272979A1, “COMBINATION THERAPEUTIC COMPOSITION” (Hoffman La-Roche Inc., priority 2012, published 2015)

Experiments:
HCV replication = conditions: general statement; cited from earlier work
[1] = tested on: CYP isozymes including 3A4, 2C19, 1A2, 2D6, and 2C9; assay: Cytochrome P450 phenotyping using chemical inhibitors; type: in vitro ADME; conditions: early preclinical studies
Description: (§1) Therefore, a cytochrome P450 monooxygenase inhibitor in an amount effective to inhibit metabolism of the protease inhibitor could increase the bioavailability of Compound 2 compared to administration in the absence of the CYP inhibitor.

CYP3A4 = CYP3A4 (Homo sapiens, UniProt P08684); assay: Metabolism by recombinant CYPs; type: in vitro ADME
Chain of CYP3A4 (P08684 whole entry): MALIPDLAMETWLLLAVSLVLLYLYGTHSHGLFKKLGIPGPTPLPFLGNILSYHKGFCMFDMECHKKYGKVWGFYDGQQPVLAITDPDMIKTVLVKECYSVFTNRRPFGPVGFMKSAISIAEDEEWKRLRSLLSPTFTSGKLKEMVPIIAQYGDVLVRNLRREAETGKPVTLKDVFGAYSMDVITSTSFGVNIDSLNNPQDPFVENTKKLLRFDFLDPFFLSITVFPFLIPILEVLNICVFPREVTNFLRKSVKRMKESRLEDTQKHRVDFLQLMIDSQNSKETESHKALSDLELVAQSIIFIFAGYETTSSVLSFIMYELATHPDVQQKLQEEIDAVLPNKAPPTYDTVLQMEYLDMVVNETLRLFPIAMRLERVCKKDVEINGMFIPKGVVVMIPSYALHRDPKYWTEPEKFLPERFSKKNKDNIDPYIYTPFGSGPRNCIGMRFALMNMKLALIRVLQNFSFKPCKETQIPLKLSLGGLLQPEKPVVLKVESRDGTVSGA
Description: as §1

CS(=O)(=O)Nc1ccc2c(c1)S(=O)(=O)N=C(C1=C(O)C3C([C@@H]4CC[C@H]3C4)N(Cc3ccc(F)cc3)C1=O)N2 (stereo partly shown) [Compound 3]
Inhibition of HCV replication (HCV replication): effective in inhibiting HCV replication

CC(C)(C)OC(=O)N[C@H]1CCCCC/C=C\[C@@H]2C[C@@]2(C(=O)NS(=O)(=O)C2CC2)NC(=O)[C@@H]2C[C@@H](OC(=O)N3Cc4cccc(F)c4C3)CN2C1=O [Compound 2, (1S,4R,6S,14S,18R)-4-Fluoro-1,3-dihydro-isoindole-2-carboxylic acid 14-tert-butoxycarbonylamino-4-cyclopropanesulfonylaminocarbonyl-2,15-dioxo-3,16-diaza-tricyclo[14.3.0.04,6]nonadec-7-en-18-yl ester]
Inhibition of HCV replication (HCV replication): effective in inhibiting HCV replication
CYP isozymes participating in metabolism [1]: multiple CYP isozymes including 3A4, 2C19, 1A2, 2D6, and 2C9 participate in the metabolism
Metabolism by recombinant CYPs (CYP3A4): only CYP3A4 metabolized Compound 2 to an extent that could influence the pharmacokinetics
